Literature values, collected in patent publication US20130129859A1, “DOSING PROTOCOLS FOR INCREASING PROTEIN SYNTHESIS IN AN ACTIVE INDIVIDUAL” (priority 2009, published 2013).

For casein, the Whole-body protein synthesis (previously discussed study) is listed as “best with casein” and the “Leucine balance, slow versus fast protein meal matched for leucine content” value (young, healthy subjects) is listed as “higher leucine balance”.
